Source: ChEMBL document CHEMBL3886684, “Azole compounds as PIM inhibitors” (2016)

Biological target: Serine/threonine-protein kinase pim-2 (Homo sapiens, UniProt Q9P1W9)
Experiment: The phosphorylation of biotinylated-BAD (S112) peptide by full length recombinant Pim-1, Pim-2, or Pim-3 protein was detected with streptavidin:Allophycocyanin (APC) conjugate and a europium (Eu) labeled antibody directed against phosphorylated-BAD (S112). […] A reference compound was included on each assay plate in order to validate that plate; on

Serine/threonine-protein kinase pim-2, sequence (Q9P1W9 whole entry): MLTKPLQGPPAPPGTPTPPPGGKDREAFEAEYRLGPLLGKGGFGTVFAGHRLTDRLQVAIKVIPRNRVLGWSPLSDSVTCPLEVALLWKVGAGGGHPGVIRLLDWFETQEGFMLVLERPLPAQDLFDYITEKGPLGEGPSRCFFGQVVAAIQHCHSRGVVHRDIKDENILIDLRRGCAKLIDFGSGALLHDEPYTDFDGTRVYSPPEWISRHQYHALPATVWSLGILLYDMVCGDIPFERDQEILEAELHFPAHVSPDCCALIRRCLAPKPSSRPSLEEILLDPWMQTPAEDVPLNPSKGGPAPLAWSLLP

CC(C)(C)Nc1nnc(-c2ccc3[nH]cc(C4=CCOCC4)c3c2)o1
IC50: 738 nM
